According to patent publication EP2119434A1, “Use of heterosidic flavonoid derivatives for therapy of stem cell cancers” (INSTITUT NATIONAL DE LA SANTE ET DE LA RECHERCHE MEDICALE …, priority 2008, dated 2009):

Each molecule was assayed on U937 (assay: Adhesion and cytotoxic assay (CAM-DR protocol, fibronectin), cell viability). Details: in vitro, adherent U937 (not shown).
Type: cell-based
Text: Fresh AML cells were obtained from bone marrow of patients upon informed consent, using Ficoll-Hypaque density-gradient centrifugation. […] For in vitro experiments, blasts were resuspended in IMDM. All patients were diagnosed according to WHO classification at the Hematology Department of Toulouse University Hospital (France). Normal bone marrow CD34+ and CD34- hematopoietic cells were harvested from healthy volunteers upon informed consent and obtained after positive selection of CD34-expressing cells by the means of immunomagnetic separation column (Miltenyi Biotech, Bergisch Gladbach, Germany). Fresh blood samples were collected from healthy adult donors and PBMC (Peripheral Blood Mononuclear Cells) were prepared on a Ficoll-Paque density gradient by centrifugation (800 g, 30 min at room temperature).
Adhesion assays were performed in 96-well plates coated overnight at 4°C with 40 µg/mL of human fibronectin (Roche Molecular Biochemicals, Mannheim, Germany) in a final volume of 50 µL in PBS. Each well was blocked with 1% fatty acid-free BSA in PBS, 1 h at room temperature and washed with PBS before seeding the cells. Cells were diluted at 3x10^5/mL overnight and then were serum starved for 1 h at 1x10^6/mL, incubated or not with plant extract/fraction and purified alkaloid or flavonoid compounds. Control assays were treated with corresponding solvents (water, water/ethanol, DMSO) at a 1/100 dilution. Cells were then allowed to adhere on fibronectin (10^5 cells/well) for 1 h at 37°C or maintained in suspension. In some experiments, both cells in suspension and adherent were treated with 0.5 µM daunorubicin (DNR) (Laboratoire Roger Bellon, Neuilly-sur-Seine, France) for 1 h at 37°C. At the end of the incubation period, cells were washed and incubated in serum containing medium for 24 h at 37°C. Cell viability was then quantified by methyl thiazolyl tetrazolium (MTT) assay (Sigma) or by the Annexin V-FITC detection kit from BD PharMingen. Experiments were performed in triplicate and results were evaluated as the percentage of surviving cells compared to the control group.
Aqueous extracts were prepared from dried H. scoparia leaves and serial dilutions were assayed for cytotoxicity over leukemic cells either in suspension or in adhesion following CAM-DR protocol.

| Molecule | specific proapoptotic effect on adherent U937 cells |
| --- | --- |
| N-methylisosalsoline | none of these compounds displayed a specific proapoptotic effect |
| NCC(O)c1ccc(O)cc1 (stereo not shown) [norsynephrine] | none of these compounds displayed a specific proapoptotic effect |
| NCCc1c[nH]c2ccccc12 [tryptamine] | none of these compounds displayed a specific proapoptotic effect |
| COc1cc(O)c2c(=O)c(O)c(-c3ccc(O)c(O)c3)oc2c1 [rhamnetin] | none of these compounds displayed a specific proapoptotic effect |
